Laboratory results published in patent US10160762B2, “6-alkyl dihydropyrazolopyrimidinone compounds as PDE2 inhibitors” (Merck Sharp & Dohme Corp., priority 2015, dated 2018).

The molecules below were run against T1, human PDE2A1 (Homo sapiens, UniProt O00408) (assay: IMAP FP PDE assay, human PDE2A1). Details: Lab A; read-out: Human PDE2 Ki (nM) Lab A.
T1 construct: GST; purchased BPS Bioscience (San Diego, Calif.) 60020; host or cells: insect cells
Format: biochemical
Procedure, shortened: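 FP (IMAP) read after 60 min room-temperature reaction of insect-cell GST-human PDE2A1 with 50 nM FAM-cAMP plus 1000 nM cGMP (pH 7.2 Tris, Mg2+, DTT). Compounds titrated 3-fold over ten points. Apparent Ki derived assuming KM of 10,000 nM; enzyme at 20% substrate turnover.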

T1 sequence (O00408 1-920 isoform O00408-2): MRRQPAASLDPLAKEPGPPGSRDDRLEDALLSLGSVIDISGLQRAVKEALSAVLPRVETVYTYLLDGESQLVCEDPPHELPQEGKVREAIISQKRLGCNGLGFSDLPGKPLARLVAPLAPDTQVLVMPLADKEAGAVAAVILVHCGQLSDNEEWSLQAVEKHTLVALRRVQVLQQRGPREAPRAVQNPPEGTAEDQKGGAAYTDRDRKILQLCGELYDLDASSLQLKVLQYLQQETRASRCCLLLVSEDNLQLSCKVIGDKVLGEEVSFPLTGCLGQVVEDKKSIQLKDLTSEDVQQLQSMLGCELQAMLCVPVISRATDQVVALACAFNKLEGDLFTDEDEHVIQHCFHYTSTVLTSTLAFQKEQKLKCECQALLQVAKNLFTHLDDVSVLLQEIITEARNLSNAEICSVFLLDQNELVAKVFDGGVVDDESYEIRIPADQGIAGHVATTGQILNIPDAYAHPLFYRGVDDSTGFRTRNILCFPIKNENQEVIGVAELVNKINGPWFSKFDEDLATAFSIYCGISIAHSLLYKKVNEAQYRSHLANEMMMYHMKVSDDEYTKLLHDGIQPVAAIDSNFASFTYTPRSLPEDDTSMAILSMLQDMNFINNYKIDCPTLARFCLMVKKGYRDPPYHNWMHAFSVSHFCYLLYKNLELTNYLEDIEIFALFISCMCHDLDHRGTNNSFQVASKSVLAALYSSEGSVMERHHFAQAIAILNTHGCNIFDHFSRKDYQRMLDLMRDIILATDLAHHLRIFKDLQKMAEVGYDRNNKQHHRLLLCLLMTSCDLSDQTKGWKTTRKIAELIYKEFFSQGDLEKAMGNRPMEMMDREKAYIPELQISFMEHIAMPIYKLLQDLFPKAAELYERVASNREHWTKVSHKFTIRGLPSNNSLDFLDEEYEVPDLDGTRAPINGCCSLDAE

Row | Compound | Ki [nM]
1 | CCC(CCCc1ccccc1)n1nc(C)c2c(=O)[nH]c(C)nc21 (stereo not shown) [Example 338, 1-(1-ethyl-4-phenylbutyl)-3,6-dimethyl-1,5-dihydro-4H-pyrazolo[3,4-d]pyrimidin-4-one] | 73
2 | COc1ccc(Cc2nc3c(c(CF)nn3C(C)c3ccc(C(F)(F)F)cc3)c(=O)[nH]2)cc1OC (single isomer, unassigned) [Example 223, (S)- or (R)-6-(3,4-Dimethoxybenzyl)-3-(fluoromethyl)-1-(1-(4-(trifluoromethyl)phenyl)ethyl)-1,5-dihydro-4H-pyrazolo[3,4-d]pyrimidin-4-one] | 12
3 | COc1ccc(Cc2nc3c(c(CF)nn3C(C)c3ccc(C(F)(F)F)cc3)c(=O)[nH]2)cc1OC (single isomer, unassigned) [Example 222, (R)- or (S)-6-(3,4-Dimethoxybenzyl)-3-(fluoromethyl)-1-(1-(4-(trifluoromethyl)phenyl)ethyl)-1,5-dihydro-4H-pyrazolo[3,4-d]pyrimidin-4-one] | < 5.1
4 | Cc1nn(C(C)c2ccc(C(F)(F)F)cc2)c2nc(Cc3ccccc3O)[nH]c(=O)c12 (stereo not shown) [Example 31, 6-(2-Hydroxybenzyl)-3-methyl-1-(1-(4-(trifluoromethyl)phenyl)ethyl)-1H-pyrazolo[3,4-d]pyrimidin-4(5H)-one] | 43
5 | Cc1nn(C(C)c2ccc(C(F)(F)F)cc2)c2nc(-c3cnc4ccccc4n3)[nH]c(=O)c12 (stereo not shown) [Example 50, 3-Methyl-6-quinoxalin-2-yl-1-{1-[4-(trifluoromethyl)phenyl]ethyl}-1,5-dihydro-4H-pyrazolo[3,4-d]pyrimidin-4-one] | 47
6 | Cc1nc2c(c(CO)nn2Cc2ccc(C(F)(F)F)cc2)c(=O)[nH]1 [Example 8, 3-(Hydroxymethyl)-6-methyl-1-[4-(trifluoromethyl)benzyl]-1,5-dihydro-4H-pyrazolo[3,4-d]pyrimidin-4-one] | 100

Continued, values first:

Row | Ki [nM] | Compound
7 | 130 | Cc1nc2c(c(CO)nn2C(C)c2ccc(C(F)(F)F)cc2)c(=O)[nH]1 (single isomer, unassigned) [Example 26, (R)- or (S)-3-(Hydroxymethyl)-6-methyl-1-{1-[4-(trifluoromethyl)phenyl]ethyl}-1,5-dihydro-4H-pyrazolo[3,4-d]pyrimidin-4-one]
8 | 132 | Cc1nn(C(C)c2ccc(C(F)(F)F)cc2)c2nc(C(C)C)[nH]c(=O)c12 (stereo not shown) [Example 43, 3-Methyl-6-(1-methylethyl)-1-{1-[4-(trifluoromethyl)phenyl]ethyl}-1,5-dihydro-4H-pyrazolo[3,4-d]pyrimidin-4-one]
9 | 23 | Cc1nc2c(c(C)nn2C(C)c2ccc(C(F)(F)F)cc2)c(=O)[nH]1 (single isomer, unassigned) [Example 37]
10 | 0.56 | Cc1nc2c(c(CO)nn2C(c2ccc(C(F)(F)F)cc2)C(C)C)c(=O)[nH]1 (stereo not shown) [Example 5, 3-(Hydroxymethyl)-6-methyl-1-(2-methyl-1-(4-(trifluoromethyl)phenyl)propyl)-1H-pyrazolo[3,4-d]pyrimidin-4(5H)-one]
11 | 1.4 | Cc1nc2c(c(CO)nn2C(C)c2ccc(C(F)(F)F)cc2)c(=O)[nH]1 (single isomer, unassigned) [Example 27, (S)- or (R)-3-(Hydroxymethyl)-6-methyl-1-{1-[4-(trifluoromethyl)phenyl]ethyl]-1,5-dihydro-4H-pyrazolo[3,4-d]pyrimidin-4-one]
12 | 428 | Cc1nc2c(c(C)nn2C(C)c2ccc(C(F)(F)F)cc2)c(=O)[nH]1 (single isomer, unassigned) [Example 36]
13 | 70 | Cc1nc2c(c(C(C)(C)O)nn2C(C)c2ccc(C(F)(F)F)cc2)c(=O)[nH]1 (stereo not shown) [Example 326, 3-(1-Hydroxy-1-methylethyl)-6-methyl-1-{1-[4-(trifluoromethyl)phenyl]ethyl}-1,5-dihydro-4H-pyrazolo[3,4-d]pyrimidin-4-one]
14 | 197 | Cc1nn(C(C)c2ccc(C(F)(F)F)cc2)c2nc(C3CCCC3)[nH]c(=O)c12 (stereo not shown) [Example 40, 6-Cyclopentyl-3-methyl-1-{1-[4-(trifluoromethyl)phenyl]ethyl}-1,5-dihydro-4H-pyrazolo[3,4-d]pyrimidin-4-one]
15 | 92 | Cc1nc2c(c(C(O)C(F)(F)F)nn2C(C)c2ccc(C(F)(F)F)cc2)c(=O)[nH]1 (stereo not shown) [Example 327, 6-Methyl-3-(2,2,2-trifluoro-1-hydroxyethyl)-1-{1-[4-(trifluoromethyl)phenyl]ethyl}-1,5-dihydro-4H-pyrazolo[3,4-d]pyrimidin-4-one]
16 | 35 | CCCc1nc2c(c(C)nn2C(C)c2ccc(C(F)(F)F)cc2)c(=O)[nH]1 (stereo not shown) [Example 41, 3-Methyl-6-propyl-1-{1-[4-(trifluoromethyl)phenyl]ethyl}-1,5-dihydro-4H-pyrazolo[3,4-d]pyrimidin-4-one]
17 | 0.39 | Cc1nc2c(c(CF)nn2C(c2ccc(C(F)(F)F)cc2)C2CC2)c(=O)[nH]1 (stereo not shown) [Example 231, 1-(cyclopropyl(4-(trifluoromethyl)phenyl)methyl)-3-(fluoromethyl)-6-methyl-1H-pyrazolo[3,4-d]pyrimidin-4(5H)-one]

Same assay, conditions: Lab B; read-out: Human PDE2 Ki (nM) Lab B

Row | Compound | Ki [nM]
18 | Cc1nc2c(c(CO)nn2C(c2ccc(OC(F)(F)F)c(F)c2)C(C)C)c(=O)[nH]1 (single isomer, unassigned) [Example 127, (S)- or (R)-1-(1-(3-Fluoro-4-(trifluoromethoxy)phenyl)-2-methylpropyl)-3-(hydroxymethyl)-6-methyl-1H-pyrazolo[3,4-d]pyrimidin-4(5H)-one] | 0.98
19 | Cc1nc2c(c(CO)nn2C(c2ccc(OC(F)(F)F)cc2)C2CC2)c(=O)[nH]1 (single isomer, unassigned) [Example 95, (S)- or (R)-1-(Cyclopropyl(4-(trifluoromethoxy)phenyl)methyl)-3-(hydroxymethyl)-6-methyl-1H-pyrazolo[3,4-d]pyrimidin-4(5H)-one] | 2
20 | COc1ccc(Cc2nc3c(c(C(F)F)nn3C(C)c3ccc(C(F)(F)F)cc3)c(=O)[nH]2)cc1OC (single isomer, unassigned) [Example 196] | 61
21 | COc1ccc(Cc2nc3c(c(CF)nn3C(C)c3ccc(C(F)(F)F)cc3)c(=O)[nH]2)cc1OC (single isomer, unassigned) [Example 222, (R)- or (S)-6-(3,4-Dimethoxybenzyl)-3-(fluoromethyl)-1-(1-(4-(trifluoromethyl)phenyl)ethyl)-1,5-dihydro-4H-pyrazolo[3,4-d]pyrimidin-4-one] | 0.34
22 | Cc1nc2c(c(CO)nn2C(c2ccc(OC(F)(F)F)cc2)C2CC2)c(=O)[nH]1 (single isomer, unassigned) [Example 94, (R)- or (S)-1-(Cyclopropyl(4-(trifluoromethoxy)phenyl)methyl)-3-(hydroxymethyl)-6-methyl-1H-pyrazolo[3,4-d]pyrimidin-4(5H)-one] | 18
23 | Cc1nc2c(c(CO)nn2C(c2ccc(OC(F)(F)F)c(F)c2)C(C)C)c(=O)[nH]1 (single isomer, unassigned) [Example 126, (R)- or (S)-1-(1-(3-Fluoro-4-(trifluoromethoxy)phenyl)-2-methylpropyl)-3-(hydroxyl-methyl)-6-methyl-1H-pyrazolo-[3,4-d]pyrimidin-4(5H)-one] | 5.7
24 | Cc1nc2c(c(CO)nn2[C@H](c2ccc(C(C)(C)C)cc2)C(C)C)c(=O)[nH]1 [Example 159, (S)-1-(1-(4-tert-Butylphenyl)-2-methylpropyl)-3-(hydroxymethyl)-6-methyl-1H-pyrazolo[3,4-d]pyrimidin-4(5H)-one] | 2
25 | Cc1nc2c(c(CO)nn2Cc2ccc(C(F)(F)F)cc2)c(=O)[nH]1 [Example 8, 3-(Hydroxymethyl)-6-methyl-1-[4-(trifluoromethyl)benzyl]-1,5-dihydro-4H-pyrazolo[3,4-d]pyrimidin-4-one] | 105
26 | Cc1nc2c(c(CO)nn2[C@@H](c2ccc(C(C)(C)C)cc2)C(C)C)c(=O)[nH]1 [Example 160, (R)-1-(1-(4-tert-Butylphenyl)-2-methylpropyl)-3-(hydroxymethyl)-6-methyl-1H-pyrazolo[3,4-d]pyrimidin-4(5H)-one] | 0.36
27 | Cc1nc2c(c(CO)nn2C(C)c2ccc(OC(F)(F)F)c(F)c2)c(=O)[nH]1 (single isomer, unassigned) [Example 11, (S)- or (R)-1-(1-(3-Fluoro-4-(trifluoromethoxy)phenyl)ethyl)-3-(hydroxymethyl)-6-methyl-1H-pyrazolo[3,4-d]pyrimidin-4(5H)-one] | 1.9
28 | Cc1nc2c(c(CO)nn2C(C)c2ccc(C3CC3)cc2)c(=O)[nH]1 (stereo not shown) [Example 3, 1-(1-(4-Cyclopropylphenl)ethyl)-3-(hydroxymethyl)-6-methyl-1H-pyrazolo[3,4-d]pyrimidin-4(5H)-one] | 3.7

Continued, values first:

Row | Ki [nM] | Compound
29 | 236 | Cc1nc2c(c(CO)nn2C(C)c2ccc(C(F)(F)F)cc2)c(=O)[nH]1 (single isomer, unassigned) [Example 26, (R)- or (S)-3-(Hydroxymethyl)-6-methyl-1-{1-[4-(trifluoromethyl)phenyl]ethyl}-1,5-dihydro-4H-pyrazolo[3,4-d]pyrimidin-4-one]
30 | 205 | Cc1nc2c(c(CO)nn2C(C)c2ccc(C(F)(F)F)c(F)c2)c(=O)[nH]1 (single isomer, unassigned) [Example 12, (R)- or (S)-1-(1-(3-Fluoro-4-(trifluoromethyl)phenyl)ethyl)-3-(hydroxymethyl)-6-methyl-1H-pyrazolo[3,4-d]pyrimidin-4(5H)-one]
31 | 0.84 | Cc1nc2c(c(C(F)F)nn2C(C)c2ccc(OC(F)F)cc2)c(=O)[nH]1 (single isomer, unassigned) [Example 182, (S)- or (R)-1-(1-(4-(Difluoromethoxy)phenyl)ethyl)-3-(difluoromethyl)-6-methyl-1H-pyrazolo[3,4-d]pyrimidin-4(5H)-one]
32 | 1.6 | Cc1nc2c(c(CO)nn2C(c2ccc(C(F)(F)F)cc2)C2CC2)c(=O)[nH]1 (stereo not shown) [Example 28, 1-(Cyclopropyl(4-(trifluoromethyl)phenyl)methyl)-3-(hydroxymethyl)-6-methyl-1H-pyrazolo[3,4-d]pyrimidin-4(5H)-one]
33 | 0.74 | Cc1nc2c(c(CO)nn2C(c2ccc(C(F)(F)F)cc2)C(C)C)c(=O)[nH]1 (stereo not shown) [Example 5, 3-(Hydroxymethyl)-6-methyl-1-(2-methyl-1-(4-(trifluoromethyl)phenyl)propyl)-1H-pyrazolo[3,4-d]pyrimidin-4(5H)-one]
34 | 3.4 | Cc1nc2c(c(CO)nn2C(C)c2ccc(C(F)(F)F)cc2)c(=O)[nH]1 (single isomer, unassigned) [Example 27, (S)- or (R)-3-(Hydroxymethyl)-6-methyl-1-{1-[4-(trifluoromethyl)phenyl]ethyl]-1,5-dihydro-4H-pyrazolo[3,4-d]pyrimidin-4-one]
35 | 0.97 | Cc1nc2c(c(CF)nn2C(c2ccc(C(F)(F)F)cc2)C2CC2)c(=O)[nH]1 (stereo not shown) [Example 231, 1-(cyclopropyl(4-(trifluoromethyl)phenyl)methyl)-3-(fluoromethyl)-6-methyl-1H-pyrazolo[3,4-d]pyrimidin-4(5H)-one]
36 | 1.1 | Cc1nc2c(c(CF)nn2C(C)c2ccc(OC(F)(F)F)cc2)c(=O)[nH]1 (single isomer, unassigned) [Example 207, (S)- or (R)-3-(Fluoromethyl)-6-methyl-1-(1-(4-(trifluoromethoxy)phenyl)ethyl)-1H-pyrazolo[3,4-d]pyrimidin-4(5H)-one]
37 | 3.4 | COCc1nc2c(c(CF)nn2C(C)c2ccc(C(F)(F)F)cc2)c(=O)[nH]1 (stereo not shown) [Example 205, 3-(Fluoromethyl)-6-(methoxymethyl)-1-{1-[4-(trifluoromethyl)phenyl]ethyl}-1,5-dihydro-4H-pyrazolo[3,4-d]pyrimidin-4-one]
